These results are taken from US20230019236A1, “PROTEIN TYROSINE PHOSPHATASE INHIBITORS AND METHODS OF USE THEREOF” (Calico Life Sciences LLC, priority 2019, published 2023).

One may read the IC50 as the concentration that inhibits the measured activity by half.

This assay has as its target T1, His tagged full-length PTP1B protein (Homo sapiens, UniProt P18031).
T1 construct: made in house
T1 sequence (P18031 with tags, fused parts or gaps): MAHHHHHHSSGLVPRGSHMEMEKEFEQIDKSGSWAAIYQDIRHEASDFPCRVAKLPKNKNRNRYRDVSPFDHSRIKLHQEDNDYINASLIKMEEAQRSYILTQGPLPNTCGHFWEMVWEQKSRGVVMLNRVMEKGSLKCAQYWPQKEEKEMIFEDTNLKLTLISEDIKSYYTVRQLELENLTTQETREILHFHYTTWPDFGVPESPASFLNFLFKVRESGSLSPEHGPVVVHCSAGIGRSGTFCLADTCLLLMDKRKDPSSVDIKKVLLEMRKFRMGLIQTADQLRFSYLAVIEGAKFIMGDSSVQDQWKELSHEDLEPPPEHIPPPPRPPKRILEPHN
In words: Mobility Shift Assay (MSA) used to determine potency of PTP1B inhibitors. In kind it is biochemical. The conditions noted are these: Table 2. The method, then:
The enzymatic assay used to determine activity is a mobility shift assay using a LabChip EZ Reader by Caliper Life Sciences. The enzymatic reaction was carried out in assay buffer (50 mM HEPES pH 7.5, 1 mM EGTA, 10 mM EDTA, 0.01% Tween® 20, and 2 mM DTT). […] The enzyme (at 0.5 nM) was incubated with compound for 10 minutes at room temperature. […] The % inhibition was then used to calculate the IC50 values.

Bounds are passed on as bounds.

Turning to `N#CCCCNc1ccc2cc(O)c(N3CC(=O)NS3(=O)=O)c(F)c2c1` [Compound 174, 4-{[8-fluoro-6-hydroxy-7-(1,1,4-trioxo-1λ^6,2,5-thiadiazolidin-2-yl)naphthalen-2-yl]amino}butanenitrile], the IC50 was greater than 100 nM. With `O=C1CN(c2c(O)cc3ccc(C4CNC4)cc3c2F)S(=O)(=O)N1` [Compound 226, 5-[7-(azetidin-3-yl)-1-fluoro-3-hydroxynaphthalen-2-yl]-1λ^6,2,5-thiadiazolidine-1,1,3-trione], the IC50 was in the range of 10 to 100 nM. Take `CC(C)CNc1ccc2cc(O)c(N3CC(=O)NS3(=O)=O)c(F)c2c1` [Compound 201, 5-{1-fluoro-3-hydroxy-7-[(2-methylpropyl)amino]naphthalen-2-yl}-1λ^6,2,5-thiadiazolidine-1,1,3-trione]: the IC50 was 1 to 10 nM. On to `O=C1CN(c2c(O)cc3ccc(OCCC(F)(F)F)cc3c2F)S(=O)(=O)N1` [Compound 180, 5-[1-fluoro-3-hydroxy-7-(3,3,3-trifluoropropoxy)naphthalen-2-yl]-1λ^6,2,5-thiadiazolidine-1,1,3-trione], for which the IC50 fell in the range of 10 to 100 nM. For `O=C(CNc1ccc2cc(O)c(N3CC(=O)NS3(=O)=O)c(F)c2c1)NCCC1CC1` [Compound 268, N-(2-cyclopropylethyl)-2-{[8-fluoro-6-hydroxy-7-(1,1,4-trioxo-1λ^6,2,5-thiadiazolidin-2-yl)naphthalen-2-yl]amino}acetamide], the IC50 fell in the range of 10 to 100 nM. The figure for `O=C1CN(c2c(O)cc3ccc(OC4CN(S(=O)(=O)C5CC5)C4)cc3c2F)S(=O)(=O)N1` [Compound 178, 5-(7-{[1-(cyclopropanesulfonyl)azetidin-3-yl]oxy}-1-fluoro-3-hydroxynaphthalen-2-yl)-1λ^6,2,5-thiadiazolidine-1,1,3-trione] is 10 to 100 nM; for `N#Cc1c[nH]c(-c2ccc3cc(O)c(N4CC(=O)NS4(=O)=O)c(F)c3c2)n1` [Compound 321, 2-[8-fluoro-6-hydroxy-7-(1,1,4-trioxo-1λ^6,2,5-thiadiazolidin-2-yl)naphthalen-2-yl]-1H-imidazole-4-carbonitrile] it is 1 to 10 nM. The figure for `O=C1CN(c2c(O)cc3ccc(C4=CCNC4)cc3c2F)S(=O)(=O)N1` [Compound 265, 5-[7-(2,5-dihydro-1H-pyrrol-3-yl)-1-fluoro-3-hydroxynaphthalen-2-yl]-1λ^6,2,5-thiadiazolidine-1,1,3-trione] is 1 to 10 nM; for `O=C1CN(c2c(O)cc3ccc(CC4CNC4)cc3c2F)S(=O)(=O)N1` [Compound 267, 5-{7-[(azetidin-3-yl)methyl]-1-fluoro-3-hydroxynaphthalen-2-yl}-1λ^6,2,5-thiadiazolidine-1,1,3-trione] it is 10 to 100 nM; for `CCOc1ccc2cc(O)c(N3CC(=O)NS3(=O)=O)c(F)c2c1` [Compound 301, 5-(7-ethoxy-1-fluoro-3-hydroxynaphthalen-2-yl)-1λ^6,2,5-thiadiazolidine-1,1,3-trione] it is greater than 100 nM. As for `O=C(O)CNc1ccc2cc(O)c(N3CC(=O)NS3(=O)=O)c(F)c2c1` [Compound 280, {[8-fluoro-6-hydroxy-7-(1,1,4-trioxo-1λ^6,2,5-thiadiazolidin-2-yl)naphthalen-2-yl]amino}acetic acid], the IC50 is greater than 100 nM.

As for `O=C1CN(c2c(O)cc3ccc(OCC(F)F)cc3c2F)S(=O)(=O)N1` [Compound 302, 5-[7-(2,2-difluoroethoxy)-1-fluoro-3-hydroxynaphthalen-2-yl]-1λ^6,2,5-thiadiazolidine-1,1,3-trione], the IC50 lay within 10 to 100 nM. The figure for `C[C@H](O)CCOc1ccc2cc(O)c(N3CC(=O)NS3(=O)=O)c(F)c2c1` [Compound 147, 5-{1-fluoro-3-hydroxy-7-[(3S)-3-hydroxybutoxy]naphthalen-2-yl}-1λ^6,2,5-thiadiazolidine-1,1,3-trione] is 1 to 10 nM; for `O=C1CN(c2c(O)cc3ccc(OCCN4CCOCC4)cc3c2F)S(=O)(=O)N1` [Compound 100, 5-{1-fluoro-3-hydroxy-7-[2-(morpholin-4-yl)ethoxy]naphthalen-2-yl}-1λ^6,2,5-thiadiazolidine-1,1,3-trione] it is 10 to 100 nM; for `O=C1CN(c2c(O)cc3ccc4occc4c3c2F)S(=O)(=O)N1` [Compound 104, 5-(9-fluoro-7-hydroxynaphtho[2,1-b]furan-8-yl)-1λ^6,2,5-thiadiazolidine-1,1,3-trione] it is 10 to 100 nM.

`CNc1ccc2cc(O)c(N3CC(=O)NS3(=O)=O)c(F)c2c1` [Compound 107, 5-[1-fluoro-3-hydroxy-7-(methylamino)naphthalen-2-yl]-1λ^6,2,5-thiadiazolidine-1,1,3-trione]: the concentration for half-maximal inhibition (IC50) was greater than 100 nM.

Take `CCNCCCc1ccc2cc(O)c(N3CC(=O)NS3(=O)=O)c(F)c2c1` [Compound 140, 5-{7-[3-(ethylamino)propyl]-1-fluoro-3-hydroxynaphthalen-2-yl}-1λ^6,2,5-thiadiazolidine-1,1,3-trione]: the IC50 is 10 to 100 nM. The figure for `CC(C)CCS(=O)(=O)N1CC=C(c2ccc3cc(O)c(N4CC(=O)NS4(=O)=O)c(F)c3c2)C1` [Compound 313, 5-{1-fluoro-3-hydroxy-7-[1-(3-methylbutane-1-sulfonyl)-2,5-dihydro-1H-pyrrol-3-yl]naphthalen-2-yl}-1λ^6,2,5-thiadiazolidine-1,1,3-trione] is less than 1 nM; for `O=C1CN(c2c(O)cc3ccc(OCCO)cc3c2F)S(=O)(=O)N1` [Compound 277, 5-[1-fluoro-3-hydroxy-7-(2-hydroxyethoxy)naphthalen-2-yl]-1λ^6,2,5-thiadiazolidine-1,1,3-trione] it is greater than 100 nM; for `O=C1CN(c2c(O)cc3ccc(OCCCC(F)(F)F)cc3c2F)S(=O)(=O)N1` [Compound 158, 5-[1-fluoro-3-hydroxy-7-(4,4,4-trifluorobutoxy)naphthalen-2-yl]-1λ^6,2,5-thiadiazolidine-1,1,3-trione] it is 1 to 10 nM. The figure for `COC/C=C/c1ccc2cc(O)c(N3CC(=O)NS3(=O)=O)c(F)c2c1` [Compound 245, 5-{1-fluoro-3-hydroxy-7-[(1E)-3-methoxyprop-1-en-1-yl]naphthalen-2-yl}-1λ^6,2,5-thiadiazolidine-1,1,3-trione] is 1 to 10 nM. The result for `O=C1CN(c2c(O)cc3ccc(OCCN4CCCCC4)cc3c2F)S(=O)(=O)N1` [Compound 112, 5-{1-fluoro-3-hydroxy-7-[2-(piperidin-1-yl)ethoxy]naphthalen-2-yl}-1λ^6,2,5-thiadiazolidine-1,1,3-trione] reads 10 to 100 nM; that for `CC(C)(CC#N)CCOc1ccc2cc(O)c(N3CC(=O)NS3(=O)=O)c(F)c2c1` [Compound 115, 5-{[8-fluoro-6-hydroxy-7-(1,1,4-trioxo-1λ^6,2,5-thiadiazolidin-2-yl)naphthalen-2-yl]oxy}-3,3-dimethylpentanenitrile], 1 to 10 nM; that for `CS(=O)(=O)N1CC[C@@H](Nc2ccc3cc(O)c(N4CC(=O)NS4(=O)=O)c(F)c3c2)C1` [Compound 304, 5-(1-fluoro-3-hydroxy-7-{[(3R)-1-(methanesulfonyl)pyrrolidin-3-yl]amino}naphthalen-2-yl)-1λ^6,2,5-thiadiazolidine-1,1,3-trione], 10 to 100 nM.

For `O=C1CN(c2c(O)cc3ccc(C(F)F)cc3c2F)S(=O)(=O)N1` [Compound 167, 5-[7-(difluoromethyl)-1-fluoro-3-hydroxynaphthalen-2-yl]-1λ^6,2,5-thiadiazolidine-1,1,3-trione], the IC50 was greater than 100 nM. The figure for `O=C1CN(c2c(O)cc3ccc(CCO)cc3c2F)S(=O)(=O)N1` [Compound 175, 5-[1-fluoro-3-hydroxy-7-(2-hydroxyethyl)naphthalen-2-yl]-1λ^6,2,5-thiadiazolidine-1,1,3-trione] is 10 to 100 nM; for `CCOCCCOc1ccc2cc(O)c(N3CC(=O)NS3(=O)=O)c(F)c2c1` [Compound 216, 5-[7-(3-ethoxypropoxy)-1-fluoro-3-hydroxynaphthalen-2-yl]-1λ^6,2,5-thiadiazolidine-1,1,3-trione] it is 1 to 10 nM; for `O=C1CN(c2c(O)cc3ccc(C4=CCN(CC(F)(F)F)CC4)cc3c2F)S(=O)(=O)N1` [Compound 275, 5-{1-fluoro-3-hydroxy-7-[1-(2,2,2-trifluoroethyl)-1,2,3,6-tetrahydropyridin-4-yl]naphthalen-2-yl}-1λ^6,2,5-thiadiazolidine-1,1,3-trione] it is 10 to 100 nM.

Take `N#CCc1ccc2cc(O)c(N3CC(=O)NS3(=O)=O)c(F)c2c1` [Compound 228, [8-fluoro-6-hydroxy-7-(1,1,4-trioxo-1λ^6,2,5-thiadiazolidin-2-yl)naphthalen-2-yl]acetonitrile]: the IC50 is 10 to 100 nM.

For the molecule `CCS(=O)(=O)N1CC=C(c2ccc3cc(O)c(N4CC(=O)NS4(=O)=O)c(F)c3c2)C1` [Compound 295, 5-{7-[1-(ethanesulfonyl)-2,5-dihydro-1H-pyrrol-3-yl]-1-fluoro-3-hydroxynaphthalen-2-yl}-1λ^6,2,5-thiadiazolidine-1,1,3-trione], the IC50 was less than 1 nM.

Turning to `CP(C)(=O)c1ccc(-c2ccc3cc(O)c(N4CC(=O)NS4(=O)=O)c(F)c3c2)s1` [Compound 141, 5-{7-[5-(dimethylphosphoryl)thiophen-2-yl]-1-fluoro-3-hydroxynaphthalen-2-yl}-1λ^6,2,5-thiadiazolidine-1,1,3-trione], the IC50 fell in the range of 1 to 10 nM.
